Test results as given in PubChem BioAssay AID248 (DTP/NCI, 2004).
Values joined by “and” are separate entries in the source; they are usually repeats but may differ in a detail not shown here. Equal values may be shown once. Toxic doses and inconclusive results are not listed.

Tested on: L1210 leukemia ip in BDF1 mice, survival T/C
Experiment: NCI In Vivo Anticancer Drug Screen. Data for tumor model L1210 Leukemia (intraperitoneal) in B6D2F1 (BDF1) mice
Conditions: endpoint: mean survival time, higher = longer survival
In short: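 Ratio derived from survival: compound-dosed mice over vehicle-dosed mice, all bearing a transplantable tumor.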

[1] = dose: 100.0 mg/kg/injection, schedule: Q01DX001 (ip), vehicle: carboxymethylcellulose (CMC)
[2] = dose: 200.0 mg/kg/injection, schedule: Q01DX001 (ip), vehicle: carboxymethylcellulose (CMC)
[3] = dose: 400.0 mg/kg/injection, schedule: Q01DX001 (ip), vehicle: carboxymethylcellulose (CMC)
[4] = dose: 25.0 mg/kg/injection, schedule: Q01DX001 (ip), vehicle: Klucel (hydroxypropylcellulose) (HPC)
[5] = dose: 50.0 mg/kg/injection, schedule: Q01DX001 (ip), vehicle: Klucel (hydroxypropylcellulose) (HPC)
[6] = dose: 100.0 mg/kg/injection, schedule: Q01DX001 (ip), vehicle: Klucel (hydroxypropylcellulose) (HPC)
[7] = dose: 100.0 mg/kg/injection, schedule: Q01DX001 (ip), vehicle: saline
[8] = dose: 200.0 mg/kg/injection, schedule: Q01DX001 (ip), vehicle: saline
[9] = dose: 400.0 mg/kg/injection, schedule: Q01DX001 (ip), vehicle: saline
[10] = dose: 50.0 mg/kg/injection, schedule: Q01DX001 (ip), vehicle: carboxymethylcellulose (CMC)

CCN=C(c1ccc(NC(=O)c2ccc(C(=O)Nc3ccc(C(=NCC)N(CC)C(=O)NCC(=O)OCC)cc3)cc2)cc1)N(CC)C(=O)NCC(=O)OCC
T/C (dose: 3.12 mg/kg/injection, schedule: Q01DX015 (ip), vehicle: methylcellulose (MC)): 109 % of control
T/C (dose: 12.5 mg/kg/injection, schedule: Q01DX015 (ip), vehicle: methylcellulose (MC)): 155 % of control
T/C (dose: 25.0 mg/kg/injection, schedule: Q01DX015 (ip), vehicle: methylcellulose (MC)): 101 % of control

CCCCN(CC)CCNc1cc(C)nc(/N=C(\N)Nc2ccc(Cl)c(Cl)c2)n1
T/C (dose: 18.75 mg/kg/injection, schedule: Q01DX009 (ip), vehicle: Klucel (hydroxypropylcellulose) (HPC)): 102 % of control
T/C (dose: 37.5 mg/kg/injection, schedule: Q01DX009 (ip), vehicle: Klucel (hydroxypropylcellulose) (HPC)): 88 % of control

BrC1=C(c2ccccc2)C2CCCCC2C1(Br)c1ccccc1 (stereo not given)
T/C (dose: 100.0 mg/kg/injection, schedule: Q01DX009 (ip), vehicle: Klucel (hydroxypropylcellulose) (HPC)): 103 % of control
T/C (dose: 200.0 mg/kg/injection, schedule: Q01DX009 (ip), vehicle: Klucel (hydroxypropylcellulose) (HPC)): 105 % of control
T/C (dose: 400.0 mg/kg/injection, schedule: Q01DX009 (ip), vehicle: Klucel (hydroxypropylcellulose) (HPC)): 114 % of control

C=CCC(CC=C)(C(N)=O)c1ccc(OC)cc1
T/C [1]: 100 % of control
T/C [2]: 97 % of control
T/C [3]: 111 % of control

Oc1ccc2ccccc2c1/C=C/c1ccncc1
T/C (dose: 6.25 mg/kg/injection, schedule: Q01DX009 (ip), vehicle: Klucel (hydroxypropylcellulose) (HPC)): 96 % of control
T/C (dose: 12.5 mg/kg/injection, schedule: Q01DX009 (ip), vehicle: Klucel (hydroxypropylcellulose) (HPC)): 97 % of control
T/C [4]: 98 % of control
T/C (dose: 25.0 mg/kg/injection, schedule: Q01DX009 (ip), vehicle: Klucel (hydroxypropylcellulose) (HPC)): 100 % of control
T/C [5]: 102 % of control
T/C (dose: 50.0 mg/kg/injection, schedule: Q01DX009 (ip), vehicle: Klucel (hydroxypropylcellulose) (HPC)): 89 % of control
T/C [6]: 105 % of control and 91 % of control

COc1cc(C=C(C#N)C#N)ccc1OC(=O)c1cc(OC)c(OC)c(OC)c1
T/C (dose: 100.0 mg/kg/injection, schedule: Q04DX002 (ip), vehicle: gum acacia): 98 % of control
T/C (dose: 200.0 mg/kg/injection, schedule: Q04DX002 (ip), vehicle: gum acacia): 92 % of control
T/C (dose: 400.0 mg/kg/injection, schedule: Q04DX002 (ip), vehicle: gum acacia): 92 % of control

COC(=O)c1cscc1C=O
T/C [7]: 100 % of control
T/C (dose: 100.0 mg/kg/injection, schedule: Q04DX003 (ip), vehicle: acetone): 102 % of control
T/C (dose: 100.0 mg/kg/injection, schedule: Q04DX003 (ip), vehicle: saline): 100 % of control
T/C [8]: 104 % of control
T/C (dose: 200.0 mg/kg/injection, schedule: Q04DX003 (ip), vehicle: acetone): 95 % of control
T/C (dose: 200.0 mg/kg/injection, schedule: Q04DX003 (ip), vehicle: saline): 94 % of control
T/C [9]: 93 % of control
T/C (dose: 400.0 mg/kg/injection, schedule: Q04DX003 (ip), vehicle: acetone): 93 % of control
T/C (dose: 400.0 mg/kg/injection, schedule: Q04DX003 (ip), vehicle: saline): 93 % of control

C1CN2CN1CN1CCN(C1)C2
T/C (dose: 12.5 mg/kg/injection, schedule: Q01DX009 (ip), vehicle: saline): 101 % of control
T/C (dose: 25.0 mg/kg/injection, schedule: Q01DX009 (ip), vehicle: saline): 108 % of control
T/C (dose: 50.0 mg/kg/injection, schedule: Q01DX009 (ip), vehicle: saline): 114 % of control

Clc1nc2nnnn2c2ccccc12
T/C (dose: 20.0 mg/kg/injection, schedule: Q04DX003 (ip), vehicle: saline): 101 % of control
T/C (dose: 40.0 mg/kg/injection, schedule: Q04DX003 (ip), vehicle: saline): 101 % of control
T/C (dose: 80.0 mg/kg/injection, schedule: Q04DX003 (ip), vehicle: saline): 104 % of control

CN(CCCCN(C)P(=O)(N1CC1)N1CC1)P(=O)(N1CC1)N1CC1
T/C [1]: 88 % of control

C=CCN1C(=O)C=CC1=O
T/C (dose: 3.0 mg/kg/injection, schedule: Q04DX002 (ip), vehicle: Klucel (hydroxypropylcellulose) (HPC)): 108 % of control
T/C (dose: 6.0 mg/kg/injection, schedule: Q04DX002 (ip), vehicle: Klucel (hydroxypropylcellulose) (HPC)): 93 % of control

C/C(Cc1cc(C)[nH]c(=S)n1)=N\NC(N)=O
T/C (dose: 50.0 mg/kg/injection, schedule: Q01DX009 (ip), vehicle: saline with Tween-80): 92 % of control
T/C (dose: 100.0 mg/kg/injection, schedule: Q01DX009 (ip), vehicle: saline with Tween-80): 92 % of control

CC(C)N(C(=O)Nc1cccc(F)c1)C1CCCCC1
T/C (dose: 50.0 mg/kg/injection, schedule: Q01DX009 (ip), vehicle: gum acacia): 105 % of control
T/C (dose: 100.0 mg/kg/injection, schedule: Q01DX009 (ip), vehicle: gum acacia): 100 % of control and 88 % of control
T/C (dose: 200.0 mg/kg/injection, schedule: Q01DX009 (ip), vehicle: gum acacia): 94 % of control
T/C (dose: 400.0 mg/kg/injection, schedule: Q01DX009 (ip), vehicle: gum acacia): 90 % of control

CC(C)CC(=O)N(C)c1ccccc1
T/C [10]: 111 % of control
T/C [1]: 108 % of control
T/C [2]: 100 % of control
T/C [3]: 97 % of control

COc1ccc2c(c1)C1(C(=O)O)CC=CCC1(C(=O)O)C2 (stereo not given)
T/C (dose: 75.0 mg/kg/injection, schedule: Q01DX001 (ip), vehicle: saline): 98 % of control
T/C (dose: 150.0 mg/kg/injection, schedule: Q01DX001 (ip), vehicle: saline): 98 % of control
T/C (dose: 300.0 mg/kg/injection, schedule: Q01DX001 (ip), vehicle: saline): 96 % of control

CCN(CC)C(=S)Oc1ccc(OC(=S)N(CC)CC)cc1
T/C (dose: 12.5 mg/kg/injection, schedule: Q04DX002 (ip), vehicle: saline with Tween-80): 93 % of control
T/C (dose: 25.0 mg/kg/injection, schedule: Q04DX002 (ip), vehicle: saline with Tween-80): 97 % of control
T/C (dose: 50.0 mg/kg/injection, schedule: Q04DX002 (ip), vehicle: saline with Tween-80): 93 % of control
T/C (dose: 200.0 mg/kg/injection, schedule: Q04DX003 (ip), vehicle: saline with Tween-80): 89 % of control
T/C (dose: 400.0 mg/kg/injection, schedule: Q04DX003 (ip), vehicle: saline with Tween-80): 91 % of control

C1CCCCCC(NC2=NCCO2)CCCCC1
T/C (dose: 25.0 mg/kg/injection, schedule: Q04DX003 (ip), vehicle: saline with Tween-80): 97 % of control
T/C (dose: 50.0 mg/kg/injection, schedule: Q04DX003 (ip), vehicle: saline with Tween-80): 102 % of control
T/C (dose: 100.0 mg/kg/injection, schedule: Q04DX003 (ip), vehicle: saline with Tween-80): 88 % of control

Cc1cnc(C)c(C(O)c2ccccc2)n1 (stereo not given)
T/C (dose: 50.0 mg/kg/injection, schedule: Q01DX001 (ip), vehicle: saline): 98 % of control
T/C [7]: 98 % of control
T/C [8]: 112 % of control
T/C [9]: 106 % of control

O=C(Nc1nccs1)NC1CCCCC1
T/C (dose: 100.0 mg/kg/injection, schedule: Q01DX009 (ip), vehicle: other): 100 % of control
T/C (dose: 200.0 mg/kg/injection, schedule: Q01DX009 (ip), vehicle: other): 96 % of control
T/C (dose: 400.0 mg/kg/injection, schedule: Q01DX009 (ip), vehicle: other): 93 % of control

COC(=O)C1OC(n2cnc3c(N)ncnc32)C(OC(C)=O)C(OC(C)=O)C1OC(C)=O (stereo not given)
T/C [10]: 100 % of control
T/C [1]: 92 % of control
T/C [2]: 100 % of control
T/C [3]: 92 % of control

CCC(C)(CC=C(C)C)c1ccncc1 (stereo not given)
T/C [7]: 98 % of control

CCOC(=O)C(CC)(OO)c1ccncc1Br (stereo not given)
T/C [4]: 101 % of control
T/C [5]: 104 % of control
T/C (dose: 50.0 mg/kg/injection, schedule: Q04DX003 (ip), vehicle: Klucel (hydroxypropylcellulose) (HPC)): 101 % of control
T/C [6]: 100 % of control and 101 % of control
T/C (dose: 100.0 mg/kg/injection, schedule: Q04DX003 (ip), vehicle: Klucel (hydroxypropylcellulose) (HPC)): 91 % of control
T/C (dose: 200.0 mg/kg/injection, schedule: Q04DX003 (ip), vehicle: Klucel (hydroxypropylcellulose) (HPC)): 92 % of control

CC(=O)C1CCCC(=O)/C=C/C(=O)O1 (stereo not given)
T/C (dose: 100.0 mg/kg/injection, schedule: Q04DX002 (ip), vehicle: Klucel (hydroxypropylcellulose) (HPC)): 92 % of control
T/C (dose: 200.0 mg/kg/injection, schedule: Q04DX002 (ip), vehicle: Klucel (hydroxypropylcellulose) (HPC)): 100 % of control
